One test has as its system E. coli ATCC 25922. As to the kind of experiment: MIC assay, CLSI broth microdilution, E. coli ATCC 25922 (AECO001). Format: cell-based. To be noted: for MIC: Escherichia coli, read-out: MIC AECO001. The protocol:
(§1) Minimum inhibitory concentrations (MIC) were determined by reference Clinical and Laboratory Standards Institute (CLSI) broth microdilution methods per M7-A7 [2006]. Quality control ranges utilizing E. coli ATCC 25922, P. aeruginosa ATCC 27853 and S. aureus ATCC 29213, and interpretive criteria for comparator agents were as published in CLSI M100-S17 [2007]. Briefly, serial two-fold dilutions of the test compounds were prepared at 2× concentration in Mueller Hinton Broth. The compound dilutions were mixed in 96-well assay plates in a 1:1 ratio with bacterial inoculum. The inoculum was prepared by suspension of a colony from an agar plate that was prepared the previous day. Bacteria were suspended in sterile saline and added to each assay plate to obtain a final concentration of 5×10^5 CFU/mL. The plates were incubated at 35° C. for 20 hours in ambient air.
These MIC assays were conducted following the same protocol as set forth in Example 110. As shown, substituted sisomicin derivatives with groups other than methyl at the 6′-position have improved activity against strains expressing the AAC6′-modifying enzymes.

The test system of a further test is P. aeruginosa ATCC 27853. In words: MIC assay, CLSI broth microdilution, P. aeruginosa ATCC 27853 (APAE001). To be noted: for MIC: Pseudomonas aeruginosa, read-out: MIC APAE001. It is filed as cell-based. The protocol:
as §1

Setting [1] is: AECO001 is ATCC25922, 35° C., 20 hours.
The mark [2] stands for this setting: APAE001 is ATCC27853, 35° C., 20 hours.

These results are taken from patent US11117915B2, “Antibacterial aminoglycoside analogs” (Cipla USA, Inc., priority 2007, dated 2021).

Values after ≈ are worked out from the molar mass of the structure shown. Like-named read-outs stand apart in the source and are kept apart here.

In the case of `CN[C@@H]1[C@@H](O)[C@@H](O[C@@H]2[C@@H](O)[C@H](O[C@H]3OC(CNCCCCCN)=CC[C@H]3N)[C@@H](N)C[C@H]2NC(=O)[C@@H](O)CCN)OC[C@]1(C)O` [Example 44, 6′-(5-Amino-pentyl)-1-(4-amino-2(S)-hydroxy-butyryl)-sisomicin], the MIC is less than 1 mg/L in the test on E. coli ATCC 25922 (ATCC25922, 20 h) and 1 to 16 mg/L (≈ 1.58 to 25.2 µM) in the test with P. aeruginosa ATCC 27853 (ATCC27853, 20 h).

`CN[C@@H]1[C@@H](O)[C@@H](O[C@@H]2[C@@H](O)[C@H](O[C@H]3OC(CNCCCN)=CC[C@H]3N)[C@@H](N)C[C@H]2NC(=O)[C@H](O)CCN)OC[C@]1(C)O` [Example 6, 6′-(3-Amino-propyl)-1-(4-amino-2(R)-hydroxy-butyryl)-sisomicin]: the MIC in the test on E. coli ATCC 25922 (ATCC25922, 20 h) was in the range of 1 to 16 mg/L (≈ 1.65 to 26.4 µM); with P. aeruginosa ATCC 27853 (ATCC27853, 20 h), 1 to 16 mg/L (≈ 1.65 to 26.4 µM).

In the case of `CN[C@@H]1[C@@H](O)[C@@H](O[C@@H]2[C@@H](O)[C@H](O[C@H]3OC(CN)=CC[C@H]3NC(=O)C(C)N)[C@@H](N)C[C@H]2NC(=O)[C@@H](O)CCN)OC[C@]1(C)O` (stereo partly drawn) [Example 88, 2′-(2-Amino-propionyl)-1-(4-amino-2(S)-hydroxy-butyryl)-sisomicin], the MIC was in the range of 1 to 16 mg/L (≈ 1.61 to 25.8 µM) in the test with E. coli ATCC 25922 (ATCC25922, 20 h) and 1 to 16 mg/L (≈ 1.61 to 25.8 µM) with P. aeruginosa ATCC 27853 (ATCC27853, 20 h). As for `CN[C@@H]1[C@@H](O)[C@@H](O[C@@H]2[C@@H](O)[C@H](O[C@H]3OC(CN)=CC[C@H]3NC(=O)CN)[C@@H](N)C[C@H]2NC(=O)[C@@H](O)CCN)OC[C@]1(C)O` [Example 87, 2′-(2-Amino-acetyl)-1-(4-amino-2(S)-hydroxy-butyryl)-sisomicin], the MIC fell in the range of 1 to 16 mg/L (≈ 1.65 to 26.4 µM) in the test on E. coli ATCC 25922 (ATCC25922, 20 h) and 1 to 16 mg/L (≈ 1.65 to 26.4 µM) with P. aeruginosa ATCC 27853 (ATCC27853, 20 h).

For the compound `CN[C@@H]1[C@@H](O)[C@@H](O[C@@H]2[C@@H](O)[C@H](O[C@H]3OC(CNCC(C)(C)CN)=CC[C@H]3N)[C@@H](N)C[C@H]2NC(=O)[C@@H](O)CN)OC[C@]1(C)O` [Example 51, 6′-(2,2-Dimethyl-3-amino-propyl)-1-(3-amino-2(S)-hydroxy-propionyl)-sisomicin], in the test on E. coli ATCC 25922 (setting [1]), the “MIC AECO001” value was “A (MIC's of 1.0 μg/mL or less = A)”. Moreover, in the test with P. aeruginosa ATCC 27853 (setting [2]), the “MIC APAE001” value is reported as “C (MIC's of greater than 16.0 μg/mL = C)”. As to `CN[C@@H]1[C@@H](O)[C@@H](O[C@@H]2[C@@H](O)[C@H](O[C@H]3OC(CN)=CC[C@H]3NC(=O)C3CCCN3)[C@@H](N)C[C@H]2NC(=O)[C@@H](O)CCN)OC[C@]1(C)O` (some centres unmarked) [Example 90], the minimal inhibitory concentration (MIC) in the test with E. coli ATCC 25922 (ATCC25922, 20 h) is less than 1 mg/L; with P. aeruginosa ATCC 27853 (ATCC27853, 20 h) it was 1 to 16 mg/L (≈ 1.55 to 24.8 µM). For `CNCC1=CC[C@@H](NC(=N)N)[C@@H](O[C@H]2[C@H](O)[C@@H](O[C@H]3OC[C@](C)(O)[C@H](NC)[C@H]3O)[C@H](N)C[C@@H]2N)O1` [Example 108, 6′-Methyl-2′-guanidinium-sisomicin] the same measures were less than 1 mg/L and 1 to 16 mg/L (≈ 1.99 to 31.8 µM). Take `CN[C@@H]1[C@@H](O)[C@@H](O[C@@H]2[C@@H](O)[C@H](O[C@H]3OC(CNCC4(O)CC(CN)C4)=CC[C@H]3N)[C@@H](N)C[C@H]2NC(=O)[C@@H](O)CCN)OC[C@]1(C)O` (some centres unmarked) [Example 39]: the minimal inhibitory concentration (MIC) with E. coli ATCC 25922 (setting [1]) was less than 1 mg/L; with P. aeruginosa ATCC 27853 (setting [2]) it was 1 to 16 mg/L (≈ 1.51 to 24.2 µM). Regarding `CN[C@@H]1[C@@H](O)[C@@H](O[C@@H]2[C@@H](O)[C@H](O[C@H]3OC(CNCC4(CN)CC4)=CC[C@H]3N)[C@@H](N)C[C@H]2NC(=O)C(O)C2CNC2)OC[C@]1(C)O` (some centres unmarked) [Example 74, 6′-(Methyl-1-aminomethyl-cyclopropyl)-1-(2-(azetidin-3-yl)-2-hydroxy-acetyl)-sisomicin], the MIC with E. coli ATCC 25922 (ATCC25922, 20 h) was 1 to 16 mg/L (≈ 1.55 to 24.9 µM); in the test on P. aeruginosa ATCC 27853 (ATCC27853, 20 h), more than 16 mg/L.

`CN[C@@H]1[C@@H](O)[C@@H](O[C@@H]2[C@@H](O)[C@H](O[C@H]3OC(CN)=CC[C@H]3NCC3CCCN3)[C@@H](N)C[C@H]2NC(=O)[C@@H](O)CCN)OC[C@]1(C)O` (stereo partly drawn) [Example 85, 2′-(Methyl-pyrrolidin-2-yl)-1-(4-amino-2(S)-hydroxy-butyryl)-sisomicin]: the minimum inhibitory concentration (MIC) in the test on E. coli ATCC 25922 (ATCC25922, 20 h) was less than 1 mg/L; with P. aeruginosa ATCC 27853 (ATCC27853, 20 h) it was 1 to 16 mg/L (≈ 1.58 to 25.3 µM).

In the case of `CN[C@@H]1C(O)[C@@H](O[C@@H]2[C@@H](O)[C@H](OC3OC(CN)=CC[C@H]3N)[C@@H](N)C[C@H]2NC(=O)[C@@H](O)CN)OC[C@]1(C)O` (some centres unmarked) [Mono-substituted Compound 5, reference compound], in the test on E. coli ATCC 25922 (Table 3, E. coli ATCC25922), the MIC AECO001 is 0.5 mg/L (≈ 0.935 µM). As for `CN[C@@H]1[C@@H](O)[C@@H](O[C@@H]2[C@@H](O)[C@H](O[C@H]3OC(CNCC4CCCN4)=CC[C@H]3N)[C@@H](N)C[C@H]2NC(=O)[C@@H](O)CCN)OC[C@]1(C)O` (stereo partly drawn) [Example 49, 6′-(Methyl-pyrrolidin-2-yl)-1-(4-amino-2(S)-hydroxy-butyryl)-sisomicin], the MIC in the test on E. coli ATCC 25922 (ATCC25922, 20 h) is less than 1 mg/L; in the test with P. aeruginosa ATCC 27853 (ATCC27853, 20 h) it was 1 to 16 mg/L (≈ 1.58 to 25.3 µM). In the test on E. coli ATCC 25922 (Table 3, E. coli ATCC25922), `CN[C@@H]1[C@@H](O)[C@@H](O[C@@H]2C(O)[C@H](O[C@H]3OC(CNCC4CCNCC4)=CC[C@H]3N)[C@@H](N)C[C@H]2N)OC[C@]1(C)O` (some centres unmarked) [Mono-substituted Compound 3, reference compound] yielded an MIC AECO001 of 0.5 mg/L (≈ 0.918 µM). `CN[C@@H]1[C@@H](O)[C@@H](O[C@@H]2[C@@H](O)[C@H](O[C@H]3OC(CN)=CC[C@H]3NCC(O)CO)[C@@H](N)C[C@H]2NC(=O)[C@@H](O)CCN)OC[C@]1(C)O` (stereo partly drawn) [Example 100, 2′-(2-Hydroxy-propanol)-1-(4-amino-2(S)-hydroxy-butyryl)-sisomicin]: the minimal inhibitory concentration (MIC) in the test with E. coli ATCC 25922 (ATCC25922, 20 h) is 1 to 16 mg/L (≈ 1.61 to 25.7 µM); in the test on P. aeruginosa ATCC 27853 (ATCC27853, 20 h), more than 16 mg/L. On to `CN[C@@H]1[C@@H](O)[C@@H](O[C@@H]2[C@@H](O)[C@H](O[C@H]3OC(CNCC(O)CCN)=CC[C@H]3N)[C@@H](N)C[C@H]2NC(=O)[C@@H](O)CN)OC[C@]1(C)O` (stereo partly drawn) [Example 68, 6′-(2-Hydroxy-4-amino-butyl)-1-(3-amino-2(S)-hydroxy-propionyl)-sisomicin], for which the minimal inhibitory concentration (MIC) in the test on E. coli ATCC 25922 (ATCC25922, 20 h) was in the range of 1 to 16 mg/L (≈ 1.61 to 25.7 µM); with P. aeruginosa ATCC 27853 (ATCC27853, 20 h) it was 1 to 16 mg/L (≈ 1.61 to 25.7 µM). In the case of `CN[C@@H]1[C@@H](O)[C@@H](O[C@@H]2[C@@H](O)[C@H](O[C@H]3OC(CNCC4CC4)=CC[C@H]3N)[C@@H](N)C[C@H]2NC(=O)C(O)C2CNC2)OC[C@]1(C)O` (some centres unmarked) [Example 71, 6′-Methylcyclopropyl-1-(2-(azetidin-3-yl)-2-hydroxy-acetyl)-sisomicin], the minimal inhibitory concentration (MIC) in the test with E. coli ATCC 25922 (ATCC25922, 20 h) was 1 to 16 mg/L (≈ 1.63 to 26 µM); in the test on P. aeruginosa ATCC 27853 (ATCC27853, 20 h), more than 16 mg/L. For the compound `CN[C@@H]1[C@@H](O)[C@@H](O[C@@H]2C(O)[C@H](O[C@H]3OC(CNCCCN)=CC[C@H]3N)[C@@H](N)C[C@H]2N)OC[C@]1(C)O` (some centres unmarked) [Mono-substituted Compound 4, reference compound], in the test with E. coli ATCC 25922 (Table 3, E. coli ATCC25922), the MIC AECO001 worked out at 2 mg/L (≈ 3.96 µM). Consider `CN[C@@H]1C(O)[C@@H](O[C@@H]2[C@@H](O)[C@H](OC3OC(CN)=CC[C@H]3N)[C@@H](N)C[C@H]2NC(=O)[C@@H](O)CCN)OC[C@]1(C)O` (some centres unmarked) [Mono-substituted Compound 6, reference compound], for which, in the test on E. coli ATCC 25922 (Table 3, E. coli ATCC25922), the MIC AECO001 came to 0.5 mg/L (≈ 0.911 µM). With `CN[C@@H]1[C@@H](O)[C@@H](O[C@@H]2C(O)[C@H](O[C@H]3OC(CNCC4CC4)=CC[C@H]3N)[C@@H](N)C[C@H]2N)OC[C@]1(C)O` (some centres unmarked) [Mono-substituted Compound 2, reference compound], the MIC AECO001 in the test with E. coli ATCC 25922 (Table 3, E. coli ATCC25922) is 1 mg/L (≈ 1.99 µM).

`CN[C@@H]1C(O)[C@@H](O[C@@H]2[C@@H](O)[C@H](OC3OC(CN)=CC[C@H]3N)[C@@H](N)C[C@H]2NC(=O)C2(O)CNC2)OC[C@]1(C)O` (some centres unmarked) [Mono-substituted Compound 7, reference compound] displayed an MIC AECO001 in the test on E. coli ATCC 25922 (Table 3, E. coli ATCC25922) of 1 mg/L (≈ 1.83 µM). The same measure, in the same setting: the value for `CNCC1=CC[C@@H](N)[C@@H](O[C@H]2C(O)[C@@H](O[C@H]3OC[C@](C)(O)[C@H](NC)[C@H]3O)[C@H](N)C[C@@H]2N)O1` (some centres unmarked) [Mono-substituted Compound 1, reference compound] was 1 mg/L (≈ 2.17 µM).
